Laboratory results as given in ChEMBL document CHEMBL1127183, “Synthesis of 6-amino-5-oxo-7-phenyl-1,4-oxazepines as conformationally constrained gauche () dipeptide mimetics” (Bioorg Med Chem Lett, 1993).
pKi: −log10 of the molar value.

Target: Angiotensin-converting enzyme (Homo sapiens, UniProt P12821)
Assay: Binding affinity against Angiotensin I converting enzyme

Chain of Angiotensin-converting enzyme (P12821 whole entry): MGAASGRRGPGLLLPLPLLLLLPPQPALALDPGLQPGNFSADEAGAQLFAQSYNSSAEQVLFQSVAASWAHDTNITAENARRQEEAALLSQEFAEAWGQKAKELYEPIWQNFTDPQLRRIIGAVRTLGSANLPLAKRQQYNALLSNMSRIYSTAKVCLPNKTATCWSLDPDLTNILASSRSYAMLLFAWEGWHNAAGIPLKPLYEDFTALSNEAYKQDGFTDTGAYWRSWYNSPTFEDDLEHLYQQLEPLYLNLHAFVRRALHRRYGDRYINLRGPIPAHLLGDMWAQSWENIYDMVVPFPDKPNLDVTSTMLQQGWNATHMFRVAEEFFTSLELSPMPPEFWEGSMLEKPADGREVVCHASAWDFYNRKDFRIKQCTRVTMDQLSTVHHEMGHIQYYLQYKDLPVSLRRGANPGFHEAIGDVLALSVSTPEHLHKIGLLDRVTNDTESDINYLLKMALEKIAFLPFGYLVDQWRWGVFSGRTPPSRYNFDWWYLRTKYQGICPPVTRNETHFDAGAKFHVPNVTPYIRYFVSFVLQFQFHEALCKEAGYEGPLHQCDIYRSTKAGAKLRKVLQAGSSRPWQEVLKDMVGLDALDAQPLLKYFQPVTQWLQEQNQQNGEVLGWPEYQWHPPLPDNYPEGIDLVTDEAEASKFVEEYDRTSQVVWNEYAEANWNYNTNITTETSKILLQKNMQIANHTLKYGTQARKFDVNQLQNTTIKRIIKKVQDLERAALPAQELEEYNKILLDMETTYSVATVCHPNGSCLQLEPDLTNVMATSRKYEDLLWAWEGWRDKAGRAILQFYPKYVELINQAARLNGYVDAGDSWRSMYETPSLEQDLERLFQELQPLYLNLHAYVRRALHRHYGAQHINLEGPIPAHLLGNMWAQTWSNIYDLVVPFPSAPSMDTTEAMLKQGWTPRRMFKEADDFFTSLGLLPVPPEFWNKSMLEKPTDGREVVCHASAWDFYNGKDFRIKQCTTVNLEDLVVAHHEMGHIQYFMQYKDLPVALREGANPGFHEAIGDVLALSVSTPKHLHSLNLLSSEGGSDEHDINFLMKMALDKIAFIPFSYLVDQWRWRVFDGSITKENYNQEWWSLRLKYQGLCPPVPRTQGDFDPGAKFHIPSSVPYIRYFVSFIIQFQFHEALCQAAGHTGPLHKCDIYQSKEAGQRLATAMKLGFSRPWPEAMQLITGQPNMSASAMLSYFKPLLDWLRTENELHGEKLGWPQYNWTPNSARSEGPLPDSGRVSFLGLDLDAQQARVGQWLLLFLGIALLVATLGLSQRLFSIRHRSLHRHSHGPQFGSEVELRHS

CC(C)C[C@H](C(=O)O)N1CCO[C@@H](c2ccccc2)[C@H](NC(=O)[C@H](S)Cc2ccccc2)C1=O
pKi: 4.30
